Results from US10538532B2, “Hepatitis B antiviral agents” (ENANTA PHARMACEUTICALS, INC., priority 2016, dated 2020).

test system: HBV; assay: HepAD38 antiviral assay: reduction of viral product accumulation (virion DNA by qPCR, HBsAg or HBeAg by ELISA); assay type: cell-based, hepatitis B virus; details: HepAD38 cells, five days after compound addition; concentration reducing viral product accumulation by 50% relative to no drug controls; read-out: HepAD38 EC50
Protocol: Methods: HepAD38 cells are maintained as previously reported (Ladner et al, Antimicrob. Agents Chemother. 1997, […], 1715). Briefly, cells are passaged upon attaining confluency in DMEM/F12 media in the presence of 10% FBS, Penn/Strep, 250 μg/mL G418, and 1 ug/ml tetracycline. Novel compounds are screened by first washing cells three times with PBS to remove tetracycline, and plating in 96 well plates at 35,000 cells/well. Compounds dissolved in DMSO are then diluted 1:200 into wells containing cells. Five days after compound addition, material is harvested for analysis. For an extended 8 day analysis, cells are plated and treated as described above, but media and compound are refreshed on d2 and d5 post initial treatment.
On harvest day, virion DNA is obtained by lysing with Sidestep Lysis and Stabilization Buffer and then quantified via quantitative real time PCR. Commercially available ELISA kits are used to quantitate the viral proteins HBsAg (Alpco) or HbeAg (US Biological) by following the manufacturer's recommended protocol after diluting samples to match the linear range of their respective assays. Irrespective of readout, compound concentrations that reduce viral product accumulation in the cell lysates or supernatants by 50% relative to no drug controls (EC50) are reported; EC50 ranges are as follows: A<0.1 μM; B 0.1-0.4 μM; C>0.4 μM.

Structure (SMILES) | EC50 [nM]
O=C(Nc1cc(F)c(F)c(F)c1)c1ccc(Cl)c(S(=O)(=O)C2CC3CCC(C2)C3=O)c1 (stereo not drawn) [Example 206] | > 400

same assay, conditions: Hepatitis B virus, HePAD38, 120 h, HepAD38 cells, five days after compound addition; concentration reducing viral product accumulation by 50% relative to no drug controls; read-out: HepAD38 EC50

Structure (SMILES) | EC50 [nM]
O=C(Nc1ccc(F)c(F)c1)c1ccc(Cl)c(S(=O)(=O)[C@H]2CC[C@H](O)CC2)c1 [Example 51] | 100 to 400
COC(=O)[C@]1(O)CC2CC[C@@H](C1)[C@H]2S(=O)(=O)c1cc(C(=O)Nc2cc(F)c(F)c(F)c2)ccc1Cl [Example 153] | > 400
O=C(Nc1cc(F)c(F)c(F)c1)c1ccc(Cl)c(S(=O)(=O)C2CC=CCC2)c1 (stereo not drawn) [Example 20] | 100 to 400
C=C1CC2CCC(C1)C2Sc1cc(C(=O)Nc2cc(F)c(F)c(F)c2)ccc1Cl (stereo not drawn) [Example 39] | > 400
Cn1ccnc1[C@]1(O)C2CCC1C[C@@H](S(=O)(=O)c1cc(C(=O)Nc3cc(F)c(F)c(F)c3)ccc1Cl)C2 [Example 362] | < 100
COc1cc(C(=O)Nc2cc(F)c(F)c(F)c2)ccc1Cl [Example 14] | > 400
O=C(Nc1cc(F)c(F)c(F)c1)c1ccc(Cl)c(S(=O)(=O)[C@H]2CC3CCC(C2)[C@@]3(O)Cn2cccn2)c1 [Example 261] | > 400
O=C(Nc1cc(F)c(F)c(F)c1)c1ccc(Cl)c(SC2CCC=CCC2)c1 [Example 63] | > 400
O=C(Nc1cc(F)c(F)c(F)c1)c1ccc(Cl)c(SC2CCOCC2)c1 [Example 67] | > 400
O=C(Nc1cc(F)c(F)c(F)c1)c1ccc(Cl)c(SCc2ccncc2)c1 [Example 38] | > 400
COc1cc(NC(=O)c2ccc(Cl)c(S(=O)(=O)[C@H]3CC[C@H](O)CC3)c2)ccn1 [Example 40] | > 400
O=C(Nc1cc(F)c(F)c(F)c1)c1ccc(Cl)c(S(=O)(=O)CC2CCOCC2)c1 [Example 113] | 100 to 400
O=C(Nc1cc(F)c(F)c(F)c1)c1ccc(Cl)c(S(=O)(=O)[C@H]2CC3CCC(C2)[C@]3(O)CNC(=O)[C@@H]2CCCN2)c1 [Example 264] | < 100
O=C(Nc1cc(F)c(F)c(F)c1)c1ccc(Cl)c(S(=O)(=O)[C@H]2C3CC[C@H]2C(O)[C@](O)(CO)C3)c1 (stereo partly drawn) [Example 156] | < 100
CC([C@H]1C[C@@H](O)C1)S(=O)(=O)c1cc(C(=O)Nc2cc(F)c(F)c(F)c2)ccc1Cl (stereo partly drawn) [Example 117] | 100 to 400
O=C(Nc1cc(F)c(F)c(F)c1)c1ccc(Cl)c([S+]([O-])[C@H]2C3C[C@@H]4C[C@H](C3)C[C@@H]2C4)c1 (stereo partly drawn) [Example 175] | > 400
O=C(Nc1cc(F)c(F)c(F)c1)c1ccc(Cl)c(S(=O)(=O)C2C[C@H]3CC[C@@H](C2)O3)c1 (stereo partly drawn) [Example 356] | 100 to 400
N[C@@H](Cc1ccccc1)C(=O)NC[C@]1(O)C2CCC1C[C@@H](S(=O)(=O)c1cc(C(=O)Nc3cc(F)c(F)c(F)c3)ccc1Cl)C2 [Example 366] | 100 to 400
O=C(Nc1cc(F)c(F)c(F)c1)c1ccc(Cl)c(SCc2cccnc2)c1 [Example 35] | > 400
CC(C)(CO)S(=O)(=O)c1cc(C(=O)Nc2cc(F)c(F)c(F)c2)ccc1Cl [Example 124] | 100 to 400

Structure (SMILES) | EC50 [nM]
O=C(Nc1cc(F)c(F)c(F)c1)c1ccc(Cl)c(S(=O)(=O)C2(CCCO)CCCCC2)c1 [Example 88] | > 400
N#Cc1cc(NC(=O)c2ccc(Cl)c(S(=O)(=O)[C@H]3CC[C@H](O)CC3)c2)ccn1 [Example 56] | > 400
COC(=O)C1CON(Cc2ccccc2)[C@@]12CC1CC[C@@H](C2)[C@H]1S(=O)(=O)c1cc(C(=O)Nc2cc(F)c(F)c(F)c2)ccc1Cl (stereo partly drawn) [Example 211] | > 400
CC1(C)O[C@H]2[C@H](CO[C@@H]2CS(=O)(=O)c2cc(C(=O)Nc3cc(F)c(F)c(F)c3)ccc2Cl)O1 [Example 107] | > 400
CC(C)(C)OC(=O)NCC(=O)NC[C@]1(O)C2CCC1C[C@@H](S(=O)(=O)c1cc(C(=O)Nc3cc(F)c(F)c(F)c3)ccc1Cl)C2 [Example 348] | < 100
CCOC(=O)C(CC1CCOCC1)S(=O)(=O)c1cc(C(=O)Nc2cc(F)c(F)c(F)c2)ccc1Cl (stereo not drawn) [Example 116] | > 400
CCOC(=O)C(F)(F)Sc1cc(C(=O)Nc2cc(F)c(F)c(F)c2)ccc1Cl [Example 91] | > 400
NCC(=O)NC[C@]1(O)C2CCC1C[C@@H](S(=O)(=O)c1cc(C(=O)Nc3cc(F)c(F)c(F)c3)ccc1Cl)C2 [Example 350] | 100 to 400
O=C(Nc1cc(F)c(F)c(F)c1)c1ccc(Cl)c(S(=O)(=O)CCC2CCOCC2)c1 [Example 123] | 100 to 400
O=C(Nc1cc(F)c(F)c(F)c1)c1ccc(Cl)c(S(=O)(=O)[C@H]2C3CC[C@H]2C[C@]2(COS(=O)O2)C3)c1 (stereo partly drawn) [Example 263] | < 100
CC(C)(C)OC(=O)N1CCC(S(=O)(=O)c2cc(C(=O)Nc3cc(F)c(F)c(F)c3)ccc2Cl)CC1 [Example 59] | < 100
O=C(Nc1cc(F)c(F)c(F)c1)c1ccc(Cl)c(S(=O)(=O)[C@H]2C3CC[C@H]2C[C@H](Cn2cccn2)C3)c1 [Example 311] | < 100
CN1OCC(C#N)C1[C@]1(O)CC2CC[C@@H](C1)[C@H]2S(=O)(=O)c1cc(C(=O)Nc2cc(F)c(F)c(F)c2)ccc1Cl (stereo partly drawn) [Example 200] | 100 to 400
O=C(Nc1cccc(F)c1)c1ccc(Cl)c(S(=O)(=O)[C@H]2CC[C@H](O)CC2)c1 [Example 65] | > 400
C[C@]1(O)C(=O)O[C@H](CS(=O)(=O)c2cc(C(=O)Nc3cc(F)c(F)c(F)c3)ccc2Cl)[C@H]1O [Example 99] | > 400
O=C(Nc1cc(F)c(F)c(F)c1)c1ccc(Cl)c(S(=O)(=O)[C@H]2C3CCC2C[C@@H](O)C3)c1 [Example 44] | 100 to 400
C=C1CC2CCC(C1)C2S(=O)(=O)c1cc(C(=O)Nc2cc(F)c(F)c(F)c2)ccc1Cl (stereo not drawn) [Example 49] | 100 to 400
O=C(Nc1cc(F)c(F)c(F)c1)c1ccc(Cl)c(S(=O)(=O)C[C@H]2OC(=O)[C@H](O)[C@@H]2O)c1 [Example 101] | > 400
C[C@H](N)C(=O)O[C@H]1CC[C@H](S(=O)(=O)c2cc(C(=O)Nc3cc(F)c(F)c(F)c3)ccc2Cl)CC1 [Example 6] | 100 to 400
COC(=O)N(C)C[C@@H]1CC2CC[C@@H](C1)[C@H]2S(=O)(=O)c1cc(C(=O)Nc2cc(F)c(F)c(F)c2)ccc1Cl [Example 335] | < 100

Structure (SMILES) | EC50 [nM]
CS(=O)(=O)NC[C@@]1(O)CC2CC[C@@H](C1)[C@H]2S(=O)(=O)c1cc(C(=O)Nc2cc(F)c(F)c(F)c2)ccc1Cl [Example 186] | 100 to 400
O=C(Nc1cc(F)c(F)c(F)c1)c1ccc(Cl)c(S(=O)(=O)C2CCOCC2)c1 [Example 69] | 100 to 400
CC(C)(C)OC(=O)N[C@@H](Cc1ccccc1)C(=O)NC[C@]1(O)C2CCC1C[C@@H](S(=O)(=O)c1cc(C(=O)Nc3cc(F)c(F)c(F)c3)ccc1Cl)C2 [Example 364] | < 100
CC(C)(C)OC(=O)N1C2CCC1CC(S(=O)(=O)c1cc(C(=O)Nc3cc(F)c(F)c(F)c3)ccc1Cl)C2 (stereo not drawn) [Example 255] | > 400
CCOC(=O)CS(=O)(=O)c1cc(C(=O)Nc2cc(F)c(F)c(F)c2)ccc1Cl [Example 77] | > 400
O=C(Nc1cc(F)c(F)c(F)c1)c1ccc(Cl)c(S(=O)(=O)[C@H]2C3CC[C@H]2C[C@]2(CO2)C3)c1 [Example 139] | < 100
O=C(Nc1cc(F)c(F)c(F)c1)c1ccc(Cl)c(S(=O)(=O)[C@H]2CC3CCC(C2)[C@]3(O)C[N+]2([O-])C[C@@H](O)[C@H](O)C2)c1 [Example 343] | 100 to 400
CC(C)[C@H](NC(=O)OC(C)(C)C)C(=O)O[C@H]1CC[C@H](S(=O)(=O)c2cc(C(=O)Nc3cc(F)c(F)c(F)c3)ccc2Cl)CC1 [Example 76] | 100 to 400
CC(O)CNC[C@]1(O)C2CCC1C[C@@H](S(=O)(=O)c1cc(C(=O)Nc3cc(F)c(F)c(F)c3)ccc1Cl)C2 (stereo partly drawn) [Example 342] | < 100
O=C(Nc1cc(F)c(F)c(F)c1)c1ccc(Cl)c(S(=O)(=O)[C@H]2C3CC[C@H]2C[C@](O)(/C=N/O)C3)c1 [Example 158] | < 100
C[C@@]1(O)CC2CC[C@@H](C1)[C@H]2S(=O)(=O)c1cc(C(=O)Nc2cc(F)c(F)c(F)c2)ccc1Cl [Example 247] | < 100
CC1(C)O[C@@H]2[C@@H](CS(=O)(=O)c3cc(C(=O)Nc4cc(F)c(F)c(F)c4)ccc3Cl)OC(=O)[C@]2(C)O1 [Example 98] | > 400
O=C(Nc1cc(F)c(F)c(F)c1)c1ccc(Cl)c(S[C@@H]2C[C@H](O)C[C@H](O)C2)c1 [Example 78] | > 400
NC[C@]1(O)C2CCC1C[C@@H](S(=O)(=O)c1cc(C(=O)Nc3cc(F)c(F)c(F)c3)ccc1Cl)C2 [Example 347] | 100 to 400
O=C(Nc1cc(F)c(F)c(F)c1)c1ccc(Cl)c(S(=O)(=O)C2CC[C@H](O)[C@H](O)C2)c1 (stereo partly drawn) [Example 70] | 100 to 400
O=C1OC[C@@]2(CC3CC[C@@H](C2)[C@H]3S(=O)(=O)c2cc(C(=O)Nc3cc(F)c(F)c(F)c3)ccc2Cl)O1 [Example 155] | < 100
O=C(Nc1cc(F)c(F)c(F)c1)c1ccc(Cl)c(S(=O)(=O)[C@H]2CC3CCC(C2)[C@H]3OC2CCCO2)c1 (stereo partly drawn) [Example 184] | > 400
O=C1CCCC(S(=O)(=O)c2cc(C(=O)Nc3cc(F)c(F)c(F)c3)ccc2Cl)C1 (stereo not drawn) [Example 29] | > 400
CCNC(=O)OC[C@]1(O)CC2CC[C@@H](C1)[C@H]2S(=O)(=O)c1cc(C(=O)Nc2cc(F)c(F)c(F)c2)ccc1Cl [Example 135] | 100 to 400
